Patent publication US20230181463A1, “OLEOGEL AND OLEOPASTE COMPOSITIONS AND USES THEREOF” (Massachusetts Institute of Technology, priority 2020, published 2023)

Columns and labels:
[1] = Drug release from AZT oleogels in lipolysis medium (simulated intestinal fluid); type: in vitro ADME; conditions: in vitro release over 90 minutes, trapezoidal rule, triplicates
Experimental: Extensive in vitro release studies were conducted to understand the impact of oil, solubilizer and gelling agent on the release of AZT in simulated intestinal fluid (SIF).
Preparation of lipolysis buffer: To prepare lipolysis buffer, tris-maleate (0.474 g), calcium chloride dihydrate (0.275 g), sodium chloride (8.766 g) were weighed and distilled water was added to bring the volume to 1 L. The pH of the buffer was adjusted to pH 6.5 using 5N sodium hydroxide.
Preparation of lipolysis media: L—a phosphotidylcholine (0.576 g/l) and sodium taurodeoxycholate hydrate (1.619 g/l) were added to the lipolysis buffer. Next, the solution was stirred overnight to dissolve all ingredients.
Preparation of pancreatin solution: Three grams of pancreatin was added to 15 ml of lipolysis buffer and stirred on a magnetic stir plate for 10 minutes. The mixture was centrifuged at 28000g, at 5° C. for 10 minutes. The supernant was collected and the pH of the supernant was adjusted to pH 6.5 using 5N sodium hydroxide solution.
Preparation of negative control: To avoid the technical difficulty in material weighing, 40 mg of AZT powder was dispersed into 10 ml of methanol. It was sonicated for 1 minute to get a clear solution. One milliliter was taken into 3 separate Falcon tube and remained still to evaporate the solvent. […]

[2] = In silico pharmacokinetic modelling of AZT oleogels; conditions: first order fit to in vitro release data
Experimental: In vivo pharmacokinetics of the various formulations were calculated using the data obtained from in vitro release studies. To achieve this, pharmacokinetic modeling studies were conducted in two steps. In the first step, first order equations to in vitro release data were used to estimate rate constant for drug release (krel) and the extent of drug release (Agel, t=0). The rate constant of drug release was considered a measure of the speed of drug release. The extent of drug release or Agel, t=0 was a measure of the total amount of drug that could be released from the formulation at 90 min, which likely depended on the partition coefficient for AZT between the oily formulation and aqueous release medium. […] In the second step, one-compartment oral drug administration model was constructed. Using krel and Agel, t=0 as input, pharmacokinetic parameters such as maximum concentration (Cmax), time to maximum concentration (Tmax) and serum drug exposure or area under the curve (AUCfit) were determined. […]

CC[C@H]1OC(=O)[C@H](C)[C@@H](O[C@H]2C[C@@](C)(OC)[C@@H](O)[C@H](C)O2)[C@H](C)[C@@H](O[C@@H]2O[C@H](C)C[C@H](N(C)C)[C@H]2O)[C@](C)(O)C[C@@H](C)CN(C)[C@H](C)[C@@H](O)[C@]1(C)O [Control, azithromycin]
Average AUC [1]: 127.23 µg·h/mL
average krel [2]: 5.28 h⁻¹
Average Agel, t=0 ([2]; 4.00 mg AZT put in): 3.98 mg
